Measurements taken from patent publication US10905700B2, “Chemoprevention of colorectal cancer” (SOFAR SPA, priority 2012, dated 2021).

Key:
Assay type in all cases: cell-based
[1] = tested on: colorectal adenocarcinoma cell line HT29; test: Growth curve (cell count every 24 hours) of cell line HT29; conditions: HT29, 96 hours of stimulation; 5-ASA 20 mM, VD3 10^-7 M, alone or combined; control 14 expansions
Description: The cell lines CaCo2 and HT29 of colorectal adenocarcinoma obtained from the ATCC (Rockville, Md., USA) were grown in a DMEM culture medium (Euroclone, Devon, UK), to which were added 10% foetal bovine serum (Lonza, Walkersville, Md., USA) inactivated at heat and 1 mM of L-glutamine (Euroclone). The 5-aminosalicylic acid (5-ASA, SOFAR S.p.A., Milan, Italy) and acetylsalicylic acid (ASA, Sigma Aldrich, St Louise, Mo., USA) were dissolved in a culture medium in a concentration of respectively 20 and 10 mM. […] The QRT-PCR was then carried out with an ABI PRISM 7900 (Applied Biosystems) sequence detecting system for quantifying the relative levels of mRNA measured in the various samples. […] The QRT-PCR signals were evacuated using the corresponding quantification method ΔΔ[…]. Relative gene expression data were analysed using real-time quantitative PCR and the 2(-Delta Delta C(T)) Method. […] The values obtained were expressed as a relative quantity (RQ) of the variation in the messenger levels. The colorectal adenocarcinoma cell line HT29, which was chosen for its responsiveness to the VD3 deriving from the corresponding VDR receptor, was subjected to “in vitro” treatment with 5-ASA 20 mM and VD3 10^-7 M, used individually and in association, in order to quantify the antiproliferative effect determined by the compounds analysed on cancerous colonocytes. […]

[2] = tested on: μ-protocadherin, E-cadherin, p21^waf1 and KLF4 messenger expression in HT29 cells; test: QRT-PCR analysis of mRNA of genes regulating proliferation, differentiation and apoptosis in HT29 cells; conditions: HT29, 96 hours; 5-ASA 20 mM, VD3 10^-7 M, alone or combined; RQ vs calibrator, normalised on GAPDH
Description: The cell lines CaCo2 and HT29 of colorectal adenocarcinoma obtained from the ATCC (Rockville, Md., USA) were grown in a DMEM culture medium (Euroclone, Devon, UK), to which were added 10% foetal bovine serum (Lonza, Walkersville, Md., USA) inactivated at heat and 1 mM of L-glutamine (Euroclone). The 5-aminosalicylic acid (5-ASA, SOFAR S.p.A., Milan, Italy) and acetylsalicylic acid (ASA, Sigma Aldrich, St Louise, Mo., USA) were dissolved in a culture medium in a concentration of respectively 20 and 10 mM. The vitamin D3 (VD3) (1 alpha, 25 dihydroxyvitamin D3, calcitriol, Sigma Aldrich) was diluted in the culture medium at a concentration of 10^-7 M. For the experiments conducted with the cell line HT29, 300,000 cells were sown for each sample and 5-ASA, vitamin D3 or the combination of 5-ASA and VD3 were added to each well. For the experiments conducted with the cell line CaCo2, on the other hand, 300,000 cells were again sown for each sample, but adding 5-ASA or ASA to each well. The treated cells were then subjected to a cell count every 24 hours to monitor the anti-proliferation effect of the different stimuli. After 96 hours of treatment all the cells were collected, resorbed and the RNA was extracted by means of the “Qiagen total RNA purification kit” following the manufacturer's instructions (Qiagen, Valencia, Calif.). The integrity and concentration of the RNA were tested using the Bio-Analyzer technique (Applied Biosystem, Foster City, Calif.). 100 ng total of RNA were then retrotranscribed using the High Capacity cDNA Archive Kit (Applied Biosystems) on the basis of the instructions provided by the manufacturer. The QRT-PCR was then carried out with an ABI PRISM 7900 (Applied Biosystems) sequence detecting system for quantifying the relative levels of mRNA measured in the various samples. The triggers and probes for amplifying the mRNA of the μ-protocadherin, E-cadherin, p21^waf-1, KLF4 and glyceraldehyde 3-phosphate dehydrogenase (GAPDH) were devised by Applied Biosystems. Each sample of cDNA was processed in triplicate in 50 μl of reaction volume using the Taqman Universal PCR Master Mix (Applied Biosystems). Thermal cyclisation was started with initial denaturation at 50° C. for 2 minutes and at 90° C. for 10 minutes followed by 40 cycles of 15 seconds at 95° C. and 1 minute at 60° C. The QRT-PCR signals were evacuated using the corresponding quantification method ΔΔ[…]. Relative gene expression data were analysed using real-time quantitative PCR and the 2(-Delta Delta C(T)) Method. Methods 2001; 25(4):402-8). This procedure calculates the relative difference in gene expression of the target gene normalised on the endogen control (GAPDH) and compared with a calibrating sample. The values obtained were expressed as a relative quantity (RQ) of the variation in the messenger levels. In order to check at the molecular level the effects determined on the cell line HT29 by the association 5-ASA/VD3, “Real Time”, quantitative RT-PCR was used to analyse the expression of a series of genes the protein products of which are involved in the regulation of the proliferation, differentiation and apoptosis of cancer colonocytes such as μ-protocadherin, E-cadherin, p21^waf1 and KLF4. This analysis was conducted on cell cultures subjected to 96 hours of treatment with the studied drugs, which were used in the previously disclosed concentrations.

[3] = tested on: colorectal adenocarcinoma cell line CaCo2; test: Growth curve (cell count) of cell line CaCo2 treated with 5-ASA and ASA; conditions: CaCo2, 96 hours; for cellularity "fold change" value / mortality / survival of treated cells: concentration of 20 mM of the analysed drugs
Description: (§1) The cell lines CaCo2 and HT29 of colorectal adenocarcinoma obtained from the ATCC (Rockville, Md., USA) were grown in a DMEM culture medium (Euroclone, Devon, UK), to which were added 10% foetal bovine serum (Lonza, Walkersville, Md., USA) inactivated at heat and 1 mM of L-glutamine (Euroclone). The 5-aminosalicylic acid (5-ASA, SOFAR S.p.A., Milan, Italy) and acetylsalicylic acid (ASA, Sigma Aldrich, St Louise, Mo., USA) were dissolved in a culture medium in a concentration of respectively 20 and 10 mM. The vitamin D3 (VD3) (1 alpha, 25 dihydroxyvitamin D3, calcitriol, Sigma Aldrich) was diluted in the culture medium at a concentration of 10^−7 M. For the experiments conducted with the cell line HT29, 300,000 cells were sown for each sample and 5-ASA, vitamin D3 or the combination of 5-ASA and VD3 were added to each well. For the experiments conducted with the cell line CaCo2, on the other hand, 300,000 cells were again sown for each sample, but adding 5-ASA or ASA to each well. The treated cells were then subjected to a cell count every 24 hours to monitor the anti-proliferation effect of the different stimuli. After 96 hours of treatment all the cells were collected, resorbed and the RNA was extracted by means of the “Qiagen total RNA purification kit” following the manufacturer's instructions (Qiagen, Valencia, Calif.). The integrity and concentration of the RNA were tested using the Bio-Analyzer technique (Applied Biosystem, Foster City, Calif.). 100 ng total of RNA were then retrotranscribed using the High Capacity cDNA Archive Kit (Applied Biosystems) on the basis of the instructions provided by the manufacturer. The QRT-PCR was then carried out with an ABI PRISM 7900 (Applied Biosystems) sequence detecting system for quantifying the relative levels of mRNA measured in the various samples. The triggers and probes for amplifying the mRNA of the μ-protocadherin, E-cadherin, p21^waf-1, KLF4 and glyceraldehyde 3-phosphate dehydrogenase (GAPDH) were devised by Applied Biosystems. Each sample of cDNA was processed in triplicate in 50 μl of reaction volume using the Taqman Universal PCR Master Mix (Applied Biosystems). Thermal cyclisation was started with initial denaturation at 50° C. for 2 minutes and at 90° C. for 10 minutes followed by 40 cycles of 15 seconds at 95° C. and 1 minute at 60° C. The QRT-PCR signals were evacuated using the corresponding quantification method ΔΔCt (Livak K J, Schmittgen T D. Relative gene expression data were analysed using real-time quantitative PCR and the 2(-Delta Delta C(T)) Method. Methods 2001; 25(4):402-8). This procedure calculates the relative difference in gene expression of the target gene normalised on the endogen control (GAPDH) and compared with a calibrating sample. The values obtained were expressed as a relative quantity (RQ) of the variation in the messenger levels.
In order to characterise further the profile of efficacy and safety associated with the chemopreventive properties of 5-ASA, a series of experiments was conducted of the same type as the series explained previously, in which a comparative analysis was conducted of the biological effects determined on cancer colonocytes following treatment with 5-ASA and with aspirin (ASA), i.e. the main drug of the family of NSAIDs. […]

[4] = tested on: μ-protocadherin, E-cadherin, p21^waf1 and KLF4 messenger expression in CaCo2 cells; test: QRT-PCR analysis of mRNA of β-catenin signal pathway genes in CaCo2 cells; conditions: CaCo2, 96 hours; 5-ASA 20 mM, ASA 10 mM
Description: as §1
On the samples taken from these cell cultures and from other cultures used as a control, the levels of messenger RNA of the genes listed in the previous paragraph (see FIG. 2) was determined by Quantitative Real Time RT-PCR. The obtained results have shown that the messenger expression of the μ-protocadherin, E-cadherin, p21^waf1 and KLF4 genes were induced respectively 3.8, 2.4, 8.0 and 5.5 times after treatment with 5-ASA 20 mM (FIG. 4), confirming the data previously observed on the cell line HT29. […] This datum is not surprising, considering the redundancy and heterogeneity that characterise molecular regulation of the gene p21^waf1, the expression of which is not only regulated by the proliferation signalling pathway of the β chain, explored in our experimental conditions through the evaluation of the codifying genes for μ-protocadherin, E-cadherin and KLF4, but also by numerous signalling pathways.

**Q.** Which results are given for `C=C1/C(=C\C=C2/CCC[C@]3(C)[C@@H]([C@H](C)CCCC(C)(C)O)CC[C@@H]23)C[C@@H](O)C[C@@H]1O` [VD3, 1 alpha, 25 dihydroxyvitamin D3]?
**A.** number of cell expansions compared with the initial number of cells [1]: 10 expansions; increase in messenger expression of E-cadherin [2]: 1.7 times; increase in messenger expression of KLF-4 [2]: 1.6 times; increase in messenger expression of p21 [2]: 1.5 times; increase in messenger expression of μ-protocadherin [2]: 1 times

**Q.** For `Nc1ccc(O)c(C(=O)O)c1` [5-ASA, 5-aminosalicylic acid], which “number of cell expansions compared with the initial number of cells” value [1] is on record?
**A.** 8 expansions

**Q.** What about the “increase in messenger expression of E-cadherin” value [2] of the same molecule?
**A.** 2.2 times

**Q.** And the “increase in messenger expression of KLF-4” value [2]?
**A.** 2.2 times

**Q.** What about the “increase in messenger expression of p21” value [2] of the same molecule?
**A.** 2.9 times

**Q.** And the “increase in messenger expression of μ-protocadherin” value [2]?
**A.** 2.5 times

**Q.** What about the “cellularity "fold change" value” [3] of the same molecule?
**A.** 1

**Q.** And the “mortality / survival of treated cells” value [3]?
**A.** all the cells treated with 5-ASA survive

**Q.** What about the “induction of messenger expression of E-cadherin” value [4] of the same molecule?
**A.** 2.4 times

**Q.** And the “induction of messenger expression of KLF4” value [4]?
**A.** 5.5 times

**Q.** And the “induction of messenger expression of p21^waf1” value [4]?
**A.** 8.0 times

**Q.** And the “induction of messenger expression of μ-protocadherin” value [4]?
**A.** 3.8 times

**Q.** What does the source list for `CC(=O)Oc1ccccc1C(=O)O` [ASA, acetylsalicylic acid]?
**A.** cellularity "fold change" value [3]: 0.2; mortality / survival of treated cells [3]: 80%; antiproliferative effect of ASA 10 mM compared with 5-ASA 20 mM ([3]; 10 mM ASA vs 20 mM 5-ASA (equivalents)): absolutely superimposable antiproliferative effect; induction of messenger expression of E-cadherin [4]: does not, on the other hand, induce; induction of messenger expression of KLF4 [4]: does not, on the other hand, induce; induction of messenger expression of p21^waf1 [4]: 5.8 times; induction of messenger expression of μ-protocadherin [4]: does not, on the other hand, induce
